Reference: paper PMC11249637, “Interaction of the Atypical Tetracyclines Chelocardin and Amidochelocardin with Renal Drug Transporters” (ACS Pharmacology & Translational Science, 2024)

Target: T1, mMate1 (Mus musculus, UniProt Q8K0H1)
T1 construct: expressed in transfected cells; host or cells: HEK293
T1 sequence (Q8K0H1 1-567): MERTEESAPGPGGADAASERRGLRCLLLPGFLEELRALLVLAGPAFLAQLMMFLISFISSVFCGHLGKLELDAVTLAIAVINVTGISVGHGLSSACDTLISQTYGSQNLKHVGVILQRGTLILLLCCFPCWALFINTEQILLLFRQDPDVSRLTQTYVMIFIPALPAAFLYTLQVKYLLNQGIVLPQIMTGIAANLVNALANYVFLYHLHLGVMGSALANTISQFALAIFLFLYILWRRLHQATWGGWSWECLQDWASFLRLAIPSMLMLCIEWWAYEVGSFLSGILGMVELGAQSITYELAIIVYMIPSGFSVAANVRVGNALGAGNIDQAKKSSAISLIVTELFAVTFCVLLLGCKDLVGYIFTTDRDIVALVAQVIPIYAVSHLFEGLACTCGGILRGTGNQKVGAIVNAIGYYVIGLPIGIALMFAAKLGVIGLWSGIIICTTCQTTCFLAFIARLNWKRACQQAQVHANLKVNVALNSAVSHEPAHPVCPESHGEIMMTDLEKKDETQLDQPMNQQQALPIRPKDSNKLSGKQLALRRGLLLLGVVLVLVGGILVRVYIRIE
Experiment: Two-point inhibition of mMate1-mediated metformin uptake in transfected HEK293 cells
Format: in vitro ADME
Conditions: 1 and 10 μM; metformin 20 μM, 1 min
Description: Well-characterized mOct1-, mOct2-, mOat1-, mOat2-, mOat3-, mMate1-, hOAT1-, hOAT3-, hOAT4-, hMRP2-, mMdr1a- and mMdr1b-transfected HEK293 cells and the respective vector-transfected control HEK293 cells were used.[42],[51],[52] All HEK293 cells (transporter-transfected and vector-transfected) were cultured in DMEM (Sigma, high glucose, 10% FBS, 1% penicillin (10,000 Units/mL)/streptomycin (10 mg/mL)) at 37°C under 5% CO2 in humidified atmosphere. The cells were routinely checked for the absence of mycoplasma infection. For the preparation of HEK293 cell monolayers, 24-well plates were pretreated with a poly-D-lysine hydrobromide solution (0.1 mg/mL). […]
For the uptake assay, the growth medium was aspirated, and each well was rinsed three times with 0.5 mL of incubation buffer (HBSS supplemented with 20 mM HEPES, pH 7.4) and incubated for 20 min at 37 °C. […] Cells were solubilized with 0.6 mL of 1N NaOH overnight and transferred into scintillation vials. ^3H and ^14C contents were measured after the addition of 2.5 mL of scintillator in a liquid scintillation counter.
The cellular protein amount was determined in parallel for each cell line (vector- and transporter-transfected) from six wells in a different 24-well reference plate using the Bradford method. […]
The inhibitory effect (I(%)) was calculated according to the formula: [drawing 5] […]

Cc1ccc2c(C)c3c(c(O)c2c1O)C(=O)[C@@]1(O)C(=O)C(C(N)=O)=C(O)[C@@H](N)[C@H]1C3 [CDCHD, amidochelocardin]
inhibitory effect on mMate1 (in words): did not have major effects

CC(=O)C1=C(O)[C@@H](N)[C@H]2Cc3c(c(O)c4c(O)c(C)ccc4c3C)C(=O)[C@@]2(O)C1=O [CHD, chelocardin]
inhibitory effect on mMate1 (in words): weak inhibitory effect
